According to patent US10064844B2, “Pharmaceutical compositions comprising an aromatse inhibitors” (MEREO BIOPHARMA 2 LIMITED, priority 2011, dated 2018):

Tests used:
[1] = Pharmacokinetics after oral administration to rats; assay type: in vivo
[2] = system: androstenedione-induced uterine hypertrophy; assay: Inhibition of androstenedione-induced uterine hypertrophy in rats (aromatase dependent model); assay type: in vivo; conditions: Rattus norvegicus
[3] = system: DMBA-induced mammary tumors; assay: Inhibition of DMBA-induced mammary tumors in rats (aromatase dependent model); assay type: in vivo; conditions: Rattus norvegicus
[4] = Single ascending dose study in pre- and post-menopausal women: pharmacokinetics; assay type: in vivo, human
Excerpt: (§1) A […] (MTD) was not reached. […] Table 4 presents the PK parameters based on preliminary analysis of the concentration-time profile obtained from this study.

[5] = system: estrone, estrone sulfate and estradiol; assay: Single ascending dose study in women: pharmacodynamics (estrogen suppression); assay type: in vivo, human
Method: Patients received either 0.1 mg, 1 mg, and 10 mg drug substance containing hard gelatin capsules as described in Example 2 or appropriate matching placebo capsules.
as §1
(§2) There were no changes in bone density by DEXA after 6 months.

[6] = system: other enzymes involved in steroid hormone synthesis or metabolism; assay: Single ascending dose study in women: other steroid hormone enzymes and hormone levels; assay type: in vivo, human; conditions: single doses
[7] = Single ascending dose study in women: safety and tolerability; assay type: in vivo
Excerpt: as §1, §2

[8] = Solid state properties of the drug substance (hygroscopicity, water solubility); assay type: physicochemical; conditions: crystalline powder

## N#Cc1ccc(C(F)(c2ccc(C#N)cc2)n2cncn2)cc1 [CGP47645, 4,4′-[fluoro-(1-H-1,2,4-triazol-1-yl)methylene]bisbenzonitrile]
[1]
  exposure expressed as AUC versus dose: proportional to the administered dose
[2]
  ED50: 3 µg/kg
[3]
  ED50: 10 µg/kg
[4]; 0.1 mg cohorts
  difference in pharmacokinetics between post- and pre-menopausal women: No differences
[4]; female, human, in vivo
  Tmax: 0.5 to 2 h
  half-life: 552 to 648 h
  median Tmax: ≤ 1 h
[4]; female, human, in vivo, 0.1 mg
  AUC(0-tlast), mean: 116.2 ng·h/mL
  Cmax, mean: 1.7 ng/mL
[4]; female, human, in vivo, 1 mg
  T1/2, mean: 538 h
[4]; female, human, in vivo, 20 mg
  T1/2, mean: 646 h
[4]; female, human, in vivo, po, 0.03 mg
  Tmax: 0.6 h
[4]; human, in vivo
  dose proportionality of pharmacokinetics (Cmax & AUC): dose proportional pharmacokinetics
  half life in humans compared with letrozole: longer half life in humans than does letrozole
[4]; single doses, women
  inter-subject variability: 10-30%
[5]; post-menopausal women, chemiluminescence or radioimmunoassay
  lowest single dose at which maximal estrogen suppression was observed: 0.1 mg
[5]; postmenopausal women
  lowest single dose at which transient estrogen suppression was seen: 0.01 mg
[6]
  inhibition of other enzymes involved in steroid hormone synthesis or metabolism: No inhibition
[7]; in vivo
  changes in bone density by DEXA: no changes
[7]; single doses 0.01 mg through 20 mg, women
  minimal toxic dose (MTD): not reached
[8]
  solubility in water: poorly soluble in water
